*1 amine or outer side, *2 acyl side, *3 side chain or, on linkers, in order; H or OH if unused. Where a SMILES comes first, the peptide text is derived from it. Side-chain parts run from the residue outwards. [ ]: non-standard residue; d: D form. The star is where a group is joined. γGlu = O=C(O)[C@H](CCC(=O)[*:2])N[*:1]; 1Nal = N[C@@H](Cc1cccc2ccccc12)C(=O)O; Stearoyl = CCCCCCCCCCCCCCCCCC(=O)*; Nle = CCCC[C@H](N)C(=O)O; AEEA = NCCOCCOCC(=O)O; Aib = CC(C)(N)C(=O)O
Biological target: T1, RXFP1 (Homo sapiens, UniProt Q9HBX9)
T1 construct: OVCAR5 cells expressing endogenous RXFP1; endogenous in cells; host or cells: OVCAR5 cells
T1 sequence (Q9HBX9 1-757): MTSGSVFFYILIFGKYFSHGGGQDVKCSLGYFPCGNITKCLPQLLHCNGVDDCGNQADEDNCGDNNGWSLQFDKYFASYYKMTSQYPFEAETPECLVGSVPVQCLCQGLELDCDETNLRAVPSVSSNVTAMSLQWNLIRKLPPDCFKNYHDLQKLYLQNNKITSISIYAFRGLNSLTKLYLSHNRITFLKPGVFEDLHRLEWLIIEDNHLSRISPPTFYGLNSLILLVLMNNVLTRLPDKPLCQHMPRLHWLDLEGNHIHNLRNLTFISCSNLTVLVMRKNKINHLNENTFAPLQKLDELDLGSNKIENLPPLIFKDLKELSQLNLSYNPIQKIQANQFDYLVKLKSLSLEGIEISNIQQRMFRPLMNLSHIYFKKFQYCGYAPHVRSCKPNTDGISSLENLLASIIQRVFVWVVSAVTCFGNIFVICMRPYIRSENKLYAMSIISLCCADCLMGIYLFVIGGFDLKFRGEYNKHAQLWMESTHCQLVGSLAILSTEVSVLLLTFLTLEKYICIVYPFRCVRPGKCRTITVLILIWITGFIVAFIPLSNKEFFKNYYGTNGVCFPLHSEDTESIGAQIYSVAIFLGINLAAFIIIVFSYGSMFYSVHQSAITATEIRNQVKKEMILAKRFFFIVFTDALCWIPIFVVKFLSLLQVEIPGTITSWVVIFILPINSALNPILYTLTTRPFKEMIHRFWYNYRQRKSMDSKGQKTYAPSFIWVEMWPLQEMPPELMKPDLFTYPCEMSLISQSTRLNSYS
Test: OVCAR5 cAMP assay (HTRF), RXFP1 agonist activity
Type: cell-based
Conditions: for EC50: OVCAR5 cells, cAMP HTRF, read-out: EC50 (nM), OVCAR 5 cells (cAMP); for Emax: OVCAR-5, maximal cAMP relative to H2-relaxin maximum (100%), read-out: EMax, OVCAR 5 cells (cAMP)
Method in brief: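 OVCAR5 cells (endogenous RXFP1) pretreated 40 min at 37° C with 1 mM IBMX, then exposed to peptides in serum-free medium for 30 min at 37° C. Lysate cAMP read by HTRF; EC50 from variable-slope sigmoidal fit; Emax as % of H2-relaxin maximal cAMP in same run.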

Structure (SMILES) | EC50 [nM] | Emax [%]
CCCCCCCCCCCCCCCCCC(=O)N[C@@H](CCC(=O)N[C@@H](CCC(=O)N[C@@H](CCC(=O)NCCOCCOCC(=O)NCCOCCOCC(=O)NCCOCCOCC(=O)NCCCC[C@H](NC(=O)[C@H](CCCCN)NC(=O)[C@H](CCCNC(=N)N)NC(=O)C(C)(C)NC(=O)[C@H](CO)NC(=O)[C@H](Cc1cccc2ccccc12)NC(=O)[C@@H](NC(=O)[C@H](CO)NC(=O)[C@H](CCCC)NC(=O)CNC(=O)[C@H](CCC(=O)O)NC(=O)C(C)(C)NC(=O)C(C)(C)NC(=O)[C@@H](NC(=O)[C@H](CCCCNC(C)=O)NC(=O)C(C)(C)NC(=O)[C@H](CCCNC(=N)N)NC(=O)[C@@H](NC(=O)[C@H](CCCCN)NC(=O)[C@H](CCC(=O)O)NC(=O)[C@H](CCCNC(=N)N)NC(=O)CNC(=O)[C@H](CCC(=O)O)NC(=O)[C@H](CC(C)C)NC(C)=O)C(C)C)[C@@H](C)CC)[C@@H](C)O)C(N)=O)C(=O)O)C(=O)O)C(=O)O [compound 80] (Ac-LEGREKVR[Aib]K(Ac)I[Aib][Aib]EG[Nle]ST[1Nal]S[Aib]RKK([AEEA-AEEA-AEEA-γGlu-γGlu-γGlu-Stearoyl])-NH2) | – | 68
CCCCCCCCCCCCCCCCCC(=O)N[C@@H](CCC(=O)N[C@@H](CCC(=O)N[C@@H](CCC(=O)NCCOCCOCC(=O)NCCOCCOCC(=O)NCCOCCOCC(=O)NCCCC[C@H](NC(=O)[C@H](CCCCN)NC(=O)[C@H](CCCNC(=N)N)NC(=O)C(C)(C)NC(=O)[C@H](CO)NC(=O)[C@H](Cc1c[nH]c2ccccc12)NC(=O)[C@@H](NC(=O)[C@H](CO)NC(=O)[C@H](CCCC)NC(=O)CNC(=O)[C@H](CCC(=O)O)NC(=O)C(C)(C)NC(=O)C(C)(C)NC(=O)[C@@H](NC(=O)[C@H](CCCCNC(C)=O)NC(=O)[C@H](C)NC(=O)[C@H](CCCNC(=N)N)NC(=O)[C@@H](NC(=O)[C@H](CCCCN)NC(=O)[C@H](CCC(=O)O)NC(=O)[C@H](CCCNC(=N)N)NC(=O)CNC(=O)[C@H](CCC(=O)O)NC(=O)[C@H](CC(C)C)NC(C)=O)C(C)C)[C@@H](C)CC)[C@@H](C)O)C(N)=O)C(=O)O)C(=O)O)C(=O)O [compound 83] (Ac-LEGREKVRAK(Ac)I[Aib][Aib]EG[Nle]STWS[Aib]RKK([AEEA-AEEA-AEEA-γGlu-γGlu-γGlu-Stearoyl])-NH2) | – | 92
CCCCCCCCCCCCCCCCCC(=O)N[C@@H](CCC(=O)N[C@@H](CCC(=O)N[C@@H](CCC(=O)NCCOCCOCC(=O)NCCOCCOCC(=O)NCCOCCOCC(=O)NCCCC[C@H](NC(=O)[C@H](CCCCNC(C)=O)NC(=O)[C@H](CCCCN)NC(=O)[C@H](CCCNC(=N)N)NC(=O)C(C)(C)NC(=O)[C@H](CO)NC(=O)[C@H](Cc1cccc2ccccc12)NC(=O)[C@@H](NC(=O)[C@H](CO)NC(=O)[C@H](CCCC)NC(=O)CNC(=O)[C@H](CCC(=O)O)NC(=O)C(C)(C)NC(=O)C(C)(C)NC(=O)[C@@H](NC(=O)[C@H](CCCCNC(C)=O)NC(=O)[C@H](C)NC(=O)[C@H](CCCNC(=N)N)NC(=O)[C@@H](NC(=O)[C@H](CCCCN)NC(=O)[C@H](CCC(=O)O)NC(=O)[C@H](CCCNC(=N)N)NC(=O)CNC(=O)[C@H](CCC(=O)O)NC(=O)[C@H](CC(C)C)NC(C)=O)C(C)C)[C@@H](C)CC)[C@@H](C)O)C(N)=O)C(=O)O)C(=O)O)C(=O)O [compound 84] (Ac-LEGREKVRAK(Ac)I[Aib][Aib]EG[Nle]ST[1Nal]S[Aib]RKK(Ac)K([AEEA-AEEA-AEEA-γGlu-γGlu-γGlu-Stearoyl])-NH2) | 0.09 | 76
CCCCCCCCCCCCCCCCCC(=O)N[C@@H](CCC(=O)N[C@@H](CCC(=O)N[C@@H](CCC(=O)NCCOCCOCC(=O)NCCOCCOCC(=O)NCCOCCOCC(=O)NCCCC[C@H](NC(=O)[C@H](CCCCNC(C)=O)NC(=O)[C@H](CCCCN)NC(=O)[C@H](CCCNC(=N)N)NC(=O)C(C)(C)NC(=O)[C@H](CO)NC(=O)[C@H](Cc1cccc2ccccc12)NC(=O)[C@@H](NC(=O)[C@H](CO)NC(=O)[C@H](CCCC)NC(=O)CNC(=O)[C@H](CCC(=O)O)NC(=O)C(C)(C)NC(=O)C(C)(C)NC(=O)[C@@H](NC(=O)[C@H](CCCCNC(C)=O)NC(=O)C(C)(C)NC(=O)[C@H](CCCNC(=N)N)NC(=O)[C@@H](NC(=O)[C@H](CCCCN)NC(=O)[C@H](CCC(=O)O)NC(=O)[C@H](CCCNC(=N)N)NC(=O)CNC(=O)[C@H](CCC(=O)O)NC(=O)[C@H](CC(C)C)NC(C)=O)C(C)C)[C@@H](C)CC)[C@@H](C)O)C(N)=O)C(=O)O)C(=O)O)C(=O)O [compound 85] (Ac-LEGREKVR[Aib]K(Ac)I[Aib][Aib]EG[Nle]ST[1Nal]S[Aib]RKK(Ac)K([AEEA-AEEA-AEEA-γGlu-γGlu-γGlu-Stearoyl])-NH2) | – | 75

More lines, now with the values ahead:

EC50 [nM] | Emax [%] | Structure (SMILES)
1.04 | 73 | CCCCCCCCCCCCCCCCCC(=O)N[C@@H](CCC(=O)N[C@@H](CCC(=O)N[C@@H](CCC(=O)NCCOCCOCC(=O)NCCOCCOCC(=O)NCCOCCOCC(=O)NCCCC[C@H](NC(=O)[C@H](CCCCNC(C)=O)NC(=O)[C@H](CCCCN)NC(=O)[C@H](CCCNC(=N)N)NC(=O)C(C)(C)NC(=O)[C@H](CO)NC(=O)[C@H](Cc1ccc(O)cc1)NC(=O)[C@@H](NC(=O)[C@H](CO)NC(=O)[C@H](CCCC)NC(=O)CNC(=O)[C@H](CCC(=O)O)NC(=O)C(C)(C)NC(=O)C(C)(C)NC(=O)[C@@H](NC(=O)[C@H](CCCCNC(C)=O)NC(=O)[C@H](C)NC(=O)[C@H](CCCNC(=N)N)NC(=O)[C@@H](NC(=O)[C@H](CCCCN)NC(=O)[C@H](CCC(=O)O)NC(=O)[C@H](CCCNC(=N)N)NC(=O)CNC(=O)[C@H](CCC(=O)O)NC(=O)[C@H](CC(C)C)NC(C)=O)C(C)C)[C@@H](C)CC)[C@@H](C)O)C(N)=O)C(=O)O)C(=O)O)C(=O)O [compound 78] (Ac-LEGREKVRAK(Ac)I[Aib][Aib]EG[Nle]STYS[Aib]RKK(Ac)K([AEEA-AEEA-AEEA-γGlu-γGlu-γGlu-Stearoyl])-NH2)
0.4 | 75 | CCCCCCCCCCCCCCCCCC(=O)N[C@@H](CCC(=O)N[C@@H](CCC(=O)N[C@@H](CCC(=O)NCCOCCOCC(=O)NCCOCCOCC(=O)NCCOCCOCC(=O)NCCCC[C@H](NC(=O)[C@H](CCCCN)NC(=O)[C@H](CCCNC(=N)N)NC(=O)C(C)(C)NC(=O)[C@H](CO)NC(=O)[C@H](Cc1cccc2ccccc12)NC(=O)[C@@H](NC(=O)[C@H](CO)NC(=O)[C@H](CCCC)NC(=O)CNC(=O)[C@H](CCC(=O)O)NC(=O)C(C)(C)NC(=O)C(C)(C)NC(=O)[C@@H](NC(=O)[C@H](CCCCNC(C)=O)NC(=O)[C@H](C)NC(=O)[C@H](CCCNC(=N)N)NC(=O)[C@@H](NC(=O)[C@H](CCCCN)NC(=O)[C@H](CCC(=O)O)NC(=O)[C@H](CCCNC(=N)N)NC(=O)CNC(=O)[C@H](CCC(=O)O)NC(=O)[C@H](CC(C)C)NC(C)=O)C(C)C)[C@@H](C)CC)[C@@H](C)O)C(N)=O)C(=O)O)C(=O)O)C(=O)O [compound 79] (Ac-LEGREKVRAK(Ac)I[Aib][Aib]EG[Nle]ST[1Nal]S[Aib]RKK([AEEA-AEEA-AEEA-γGlu-γGlu-γGlu-Stearoyl])-NH2)

Source: patent publication US10988523B2, “Modified lipidated Relaxin B chain peptides and their therapeutic use” (Sanofi, priority 2018, dated 2021)
